Data taken from publication PMC9127185, “A Pyridazinone Compound for Effectively Treating Non-alcoholic Steatohepatitis by Targeting THRβ” (Frontiers in Chemistry, 2022).
“Also recorded” adds a separate entry of the source.

Legend:
THRβ = molecular target: T1, THRβ (Homo sapiens, UniProt P10828); test: Selectivity and activity for THRβ; conditions: in words, no data shown
T1 sequence (P10828 1-461): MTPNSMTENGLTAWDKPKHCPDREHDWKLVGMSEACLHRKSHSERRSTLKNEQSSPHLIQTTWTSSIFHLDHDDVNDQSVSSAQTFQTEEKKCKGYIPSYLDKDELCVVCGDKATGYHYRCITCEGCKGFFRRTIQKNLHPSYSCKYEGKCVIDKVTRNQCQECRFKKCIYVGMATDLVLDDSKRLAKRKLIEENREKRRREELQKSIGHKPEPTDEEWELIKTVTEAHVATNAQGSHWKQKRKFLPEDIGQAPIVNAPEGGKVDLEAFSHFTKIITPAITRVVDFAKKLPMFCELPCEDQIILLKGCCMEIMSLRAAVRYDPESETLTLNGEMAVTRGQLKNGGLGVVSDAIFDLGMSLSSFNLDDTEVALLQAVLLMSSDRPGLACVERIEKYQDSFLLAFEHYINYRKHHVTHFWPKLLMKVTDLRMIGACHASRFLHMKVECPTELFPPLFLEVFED

NASH = NASH pharmacodynamic study; type: in vivo; conditions: in words, no data shown

For `N#Cc1cn(-c2cc(Cl)c(Oc3cc(C4CCC4)c(=O)[nH]n3)c(Cl)c2)c(=O)[nH]c1=O` [YWS01125, 1-(3,5-dichloro-4-((5-cyclobutyl-6-oxo-1,6-dihydropyridazin-3-yl)oxy)phenyl)-2,4-dioxo-1,2,3,4-tetrahydropyrimidine-5-carbonitrile], the “Selectivity and activity for THRβ” value (THRβ) was “excellent activity; also recorded: best selectivity and activity” and the “Effect on NASH” value (NASH) was “alleviation of NASH”.
